The test system of one series is Apis mellifera. The following applies: acute, mortality.
Another series concerns Bibionidae. To be noted: chronic/long-term; duration: 28 days.
The next series concerns Daphnia magna. The following applies: chronic/long-term; duration: 21 days; reproduction.
The next series has as its system Folsomia candida. To be noted: chronic/long-term.
The next series concerns Hypoaspis aculeifer. To be noted: chronic/long-term.
Another series has as its system Pimephales promelas. The following applies: chronic/long-term; duration: 33 days; other.
A further series relates to Aphidius rhopalosiphi. In words: LR50; higher = less toxic. The following applies: not reported; mortality.
A further series has as its system Typhlodromus pyri. The series is described as follows: LR50; higher = less toxic. To be noted: not reported; mortality.

Where only a bound is given, the exact number is not on record here.

By NOAEL is commonly meant the highest dose or exposure tested at which no adverse effect was seen.

On to `Cc1cccc2sc3nncn3c12` [2,7,8,9-Tricyclazole], for which the LD50 with Apis mellifera (dermal) is more than 99 µg/piece; in the series with Apis mellifera (oral, unspecified), 30.9 µg/piece; in the series with Colinus virginianus (acute, oral) it was more than 2180 mg/kg-day; with Rattus norvegicus (acute, oral, F, mortality), 237 mg/kg-day. The NOEC with Bibionidae came to 1.68 mg/L; in the series on Daphnia magna, 1.3 mg/L; in the series on Folsomia candida, 32 mg/kg; with Hypoaspis aculeifer, 16 mg/kg; in the series with Pimephales promelas it was 0.743 mg/L; in the series on Tagia sp. (chronic/long-term), 250 mg/kg. The LC50 was more than 1140 mg/kg-day in the series on Colinus virginianus (acute, oral, diet) and more than 1000 mg/kg in the series on Tagia sp. (acute, duration: 14 days, mortality). The NOAEL was 27.1 mg/kg-day in the series with Colinus virginianus (reproduction developmental) and 5 mg/kg-day in the series with Rattus norvegicus (chronic). For the same molecule, the values for the LR50 in the series on Aphidius rhopalosiphi and in the series on Typhlodromus pyri were less than 460 g/ha and more than 460 g/ha, respectively.

The values above are taken from EPA's ToxValDB 9.5 (doi:10.2903/j.efsa.2015.4032).
